Reference: US20140249139A1, “Quinazoline Derivatives” (NOVARTIS AG, priority 2011, published 2014)

How the values were obtained:
[1] = test system: murine B cells; experiment: Murine B cell activation: CD86 expression on CD19 positive B cells after anti-IgM stimulation; assay type: cell-based; conditions: Balb/c mouse splenocytes, anti-IgM 30 μg/ml, 24 hours, read-out: mCD86/ IC50 CD86
Method: PI3Kδ has been recognized to modulate B cell function when cells are stimulated through the B cell receptor (BCR) (Okkenhaug et al. Science 297:1031 (2002). For assessing the inhibitory property of compounds on B cell activation, the upregulation of activation markers CD86 and CD69 on murine B cells derived from mouse spleen […] is measured after stimulation with anti-IgM. CD69 is a well known activation marker for B and T cells (Sancho et al. Trends Immunol. 26:136 (2005). CD86 (also known as B7-2) is primarily expressed on antigen-presenting cells, including B cells. Resting B cells express CD86 at low levels, but upregulate it following stimulation of e.g. the BCR or IL-4 receptor. CD86 on a B cell interacts with CD28 on T cells. This interaction is required for optimal T cell activation and for the generation of an optimal IgG1 response (Carreno et al. Annu Rev Immunol. 20:29 (2002)).
Spleens from Balb/c mice were collected, splenocytes were isolated and washed twice with RPMI containing 10% foetal bovine serum (FBS), 10 mM HEPES, 100 Units/ml penicilline/streptomycine. RPMI supplemented in this way is subsequently referred to as medium. The cells were adjusted to 2.5×10^6 cells/ml in medium and 200 μl cell suspension ([…]) were added to the appropriate wells of 96 well plates.
Then the cells were stimulated by adding 50 μl anti-IgM mAb in medium (final concentration: 30 μg/ml). After incubation for 24 hours at 37° C., the cells were stained with the following antibody cocktails: anti-mouse CD86-FITC, anti-mouse CD69-PerCP-Cy5.5, anti-mouse CD19-PerCP for the assessment of B cells, and anti-mouse CD3-FITC, anti-mouse CD69-PE for the assessment of T cells (2 μl of each antibody/well). After one hour at room temperature (RT) in the dark the cells were transferred to 96 Deepwell plates. The cells were washed once with 1 ml PBS containing 2% FBS and after re-suspension in 200 μl the samples were analyzed on a FACS Calibur flow cytometer. Lymphocytes were gated in the FSC/SSC dot plot according to size and granularity and further analyzed for expression of CD19, CD3 and activation markers (CD86, CD69). Data were calculated from dot blots as percentage of cells positively stained for activation markers within the CD19+ or CD3+ population using BD CellQest Software.
For assessing the inhibitory property of compounds, compounds were first dissolved and diluted in DMSO followed by a 1:50 dilution in medium. Splenocytes from Balb/c mice were isolated, re-suspended and transfered to 96 well plates as described above (200 μl/well). The diluted compounds or solvent were added to the plates (25 μl) and incubated at 37° C. for 1 hour. Then the cultures were stimulated with 25 μl anti-IgM mAb/well (final concentration 30 μg/ml) for 24 hours at 37° C. and stained with anti-mouse CD86-FITC and anti-mouse CD19-PerCP (2 μl of each antibody/well). CD86 expression on CD19 positive B cells was quantified by flow cytometry as described above.

[2] = target: T1, PI3K alpha (Homo sapiens, UniProt P42336); experiment: Enzymatic PI3K alpha isoform inhibition (lipid kinase activity, Kinase-Glo); assay type: biochemical; conditions: enzymatic assay
T1 construct: for the p110-a subunit (with a deletion of the first 20 amino acids) are generated; His tag (C); made in house; host or cells: baculovirus BV1075; Tn5 (Trichoplusia ni) or TiniPro insect cells
T1 sequence (P42336 with tags, fused parts or gaps limits assumed, species assumed): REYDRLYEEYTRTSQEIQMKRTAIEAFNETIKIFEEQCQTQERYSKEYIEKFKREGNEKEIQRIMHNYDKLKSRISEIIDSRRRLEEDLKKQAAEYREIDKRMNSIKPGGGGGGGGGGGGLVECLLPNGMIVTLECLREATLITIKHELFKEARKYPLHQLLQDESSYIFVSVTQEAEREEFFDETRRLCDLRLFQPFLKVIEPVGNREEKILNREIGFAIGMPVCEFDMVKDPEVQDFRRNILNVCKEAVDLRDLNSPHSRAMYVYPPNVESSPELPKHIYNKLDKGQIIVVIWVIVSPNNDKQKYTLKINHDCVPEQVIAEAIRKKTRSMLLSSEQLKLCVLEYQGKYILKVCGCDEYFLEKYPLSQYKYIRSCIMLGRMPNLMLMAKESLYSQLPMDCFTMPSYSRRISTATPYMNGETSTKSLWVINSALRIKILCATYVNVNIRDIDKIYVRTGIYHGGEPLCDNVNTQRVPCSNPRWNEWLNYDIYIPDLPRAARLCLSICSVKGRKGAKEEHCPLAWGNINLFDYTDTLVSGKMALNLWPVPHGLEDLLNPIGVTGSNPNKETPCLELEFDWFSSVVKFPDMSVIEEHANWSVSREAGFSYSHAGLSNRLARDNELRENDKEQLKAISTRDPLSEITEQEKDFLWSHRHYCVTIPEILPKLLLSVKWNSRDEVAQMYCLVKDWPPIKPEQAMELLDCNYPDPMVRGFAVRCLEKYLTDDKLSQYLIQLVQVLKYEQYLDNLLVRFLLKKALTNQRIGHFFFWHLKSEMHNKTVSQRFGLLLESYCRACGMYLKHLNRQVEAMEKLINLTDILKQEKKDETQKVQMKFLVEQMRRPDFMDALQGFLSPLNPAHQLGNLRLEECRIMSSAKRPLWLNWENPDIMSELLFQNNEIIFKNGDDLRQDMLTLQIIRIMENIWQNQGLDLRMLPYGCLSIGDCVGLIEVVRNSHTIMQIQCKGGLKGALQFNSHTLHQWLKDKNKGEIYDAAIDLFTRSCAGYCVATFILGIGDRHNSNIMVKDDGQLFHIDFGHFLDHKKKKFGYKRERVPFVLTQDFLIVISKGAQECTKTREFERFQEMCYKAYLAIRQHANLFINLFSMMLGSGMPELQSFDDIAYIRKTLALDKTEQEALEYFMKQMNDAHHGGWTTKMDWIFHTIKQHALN
Method: (§1) The components of the assay are added per well as follows:
(§2) IC50 is determined by a four parameter curve fitting routine that comes along with “excel fit”.
(§3) Yet alternatively, for an ATP depletion assay, compounds of the formula I to be tested are dissolved in DMSO and directly distributed into a white 384-well plate at 0.5 μl per well. To start the reaction, 10 μl of 10 nM PI3 kinase and 5 μg/ml 1-alpha-phosphatidylinositol (PI) are added into each well followed by 10 μl of 2 μM ATP. The reaction is performed until approx 50% of the ATP is depleted, and then stopped by the addition of 20 μl of Kinase-Glo solution (Promega Corp., Madison, Wis., USA). The stopped reaction is incubated for 5 minutes and the remaining ATP is then detected via luminescence. IC50 values are then determined.

[3] = target: T2, PI3K delta (Homo sapiens, UniProt O00329); experiment: Enzymatic PI3K delta isoform inhibition (lipid kinase activity, Kinase-Glo); assay type: biochemical; conditions: enzymatic assay
T2 construct: for the full-length p110-d subunit are generated and fused by overlapping PCR; His tag (C); made in house; host or cells: baculovirus BV1060; Tn5 (Trichoplusia ni) or TiniPro insect cells
T2 sequence (O00329 with tags, fused parts or gaps limits assumed, species assumed): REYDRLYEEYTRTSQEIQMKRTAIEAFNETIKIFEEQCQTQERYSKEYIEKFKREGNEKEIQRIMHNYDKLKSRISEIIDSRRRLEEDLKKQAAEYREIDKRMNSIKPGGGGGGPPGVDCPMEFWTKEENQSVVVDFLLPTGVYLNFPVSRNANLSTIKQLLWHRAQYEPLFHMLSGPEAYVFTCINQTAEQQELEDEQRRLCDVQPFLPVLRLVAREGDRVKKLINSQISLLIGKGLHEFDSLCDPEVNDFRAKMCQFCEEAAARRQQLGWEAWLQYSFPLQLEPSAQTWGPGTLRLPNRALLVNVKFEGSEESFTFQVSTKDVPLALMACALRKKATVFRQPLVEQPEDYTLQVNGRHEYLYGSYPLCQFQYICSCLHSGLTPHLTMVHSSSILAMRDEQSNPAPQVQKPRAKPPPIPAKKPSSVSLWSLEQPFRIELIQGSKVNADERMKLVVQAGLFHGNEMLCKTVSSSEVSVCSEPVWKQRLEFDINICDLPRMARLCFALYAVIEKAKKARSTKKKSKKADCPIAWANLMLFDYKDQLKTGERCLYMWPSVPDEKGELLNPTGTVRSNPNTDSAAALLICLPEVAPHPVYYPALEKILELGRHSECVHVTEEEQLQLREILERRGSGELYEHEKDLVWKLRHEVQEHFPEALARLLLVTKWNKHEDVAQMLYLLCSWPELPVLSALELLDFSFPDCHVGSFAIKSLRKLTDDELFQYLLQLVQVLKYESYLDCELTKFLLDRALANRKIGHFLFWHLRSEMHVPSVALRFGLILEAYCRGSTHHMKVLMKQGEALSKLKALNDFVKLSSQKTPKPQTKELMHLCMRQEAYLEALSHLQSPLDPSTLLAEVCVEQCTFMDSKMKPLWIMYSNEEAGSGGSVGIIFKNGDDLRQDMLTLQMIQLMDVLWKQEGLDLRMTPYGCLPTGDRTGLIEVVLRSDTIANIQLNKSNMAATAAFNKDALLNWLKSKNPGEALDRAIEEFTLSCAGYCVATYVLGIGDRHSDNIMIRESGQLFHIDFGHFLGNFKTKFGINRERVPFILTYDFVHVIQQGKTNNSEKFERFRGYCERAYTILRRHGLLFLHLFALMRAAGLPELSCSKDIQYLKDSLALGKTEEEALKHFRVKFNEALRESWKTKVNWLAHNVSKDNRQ
Method: as §1, §2, §3

## COc1ccc(-c2ccc3ncnc(-c4cccc(C(=O)N5CCN(C(C)=O)CC5)c4)c3c2)cn1 [Example 12]
[1]
  IC50: 0.107 µM

## COc1ncc(-c2ccc3ncnc(-c4cncc(C(=O)N5CCN(C(C)=O)CC5)c4)c3c2)cc1C(F)(F)F [Example 54]
[2]
  IC50: 0.069 µM
[3]
  IC50: 0.003 µM

## COc1ncc(-c2ccc3ncnc(-c4cc(C)cc(C(=O)N5CCN(C(C)=O)CC5)c4)c3c2)cc1C#N [Example 109, 5-{4-[3-(4-Acetyl-piperazine-1-carbonyl)-5-methyl-phenyl]-quinazolin-6-yl}-2-methoxy-nicotinonitrile]
[2]
  IC50: 0.435 µM
[3]
  IC50: 0.014 µM

## COc1ccc(-c2ccc3ncnc(-c4cccc(C(=O)N5CC6CC5CN6)c4)c3c2)cn1 (stereo not drawn) [Example 38, (2,5-Diaza-bicyclo[2.2.1]hept-2-yl)-{3-[6-(6-methoxy-pyridin-3-yl)-quinazolin-4-yl]-phenyl}-methanone]
[2]
  IC50: 0.372 µM
[3]
  IC50: 0.007 µM

## CN1CCN(C(=O)c2cncc(-c3ncnc4ccc(-c5cnc(N)nc5)cc34)c2)CC1 [Example 60]
[2]
  IC50: 0.657 µM
[3]
  IC50: 0.0195 µM

## COc1ccc(-c2ccc3ncnc(-c4cncc(C(=O)N5CCN(C)CC5)c4)c3c2)cc1C(F)(F)F [Example 58]
[2]
  IC50: 0.645 µM
[3]
  IC50: 0.0055 µM

## COc1ccc(-c2ccc3ncnc(-c4cccc(C(=O)N5CCN(C)C[C@@H]5C)c4)c3c2)cn1 [Example 99, ((S)-2,4-Dimethyl-piperazin-1-yl)-{3-[6-(6-methoxy-pyridin-3-yl)-quinazolin-4-yl]-phenyl}-methanone]
[2]
  IC50: 0.237 µM
[3]
  IC50: 0.0045 µM

## COc1ncc(-c2ccc3ncnc(-c4cc(F)cc(C(=O)N5CCN(C(C)=O)CC5)c4)c3c2)cn1 [Example 111, 1-(4-{3-Fluoro-5-[6-(2-methoxy-pyrimidin-5-yl)-quinazolin-4-yl]-benzoyl}-piperazin-1-yl)-ethanone]
[2]
  IC50: 1.36 µM
[3]
  IC50: 0.01 µM

## COc1ncc(-c2ccc3ncnc(-c4cncc(C(=O)N5CCN(C)C(C)(C)C5)c4)c3c2)cc1F [Example 73]
[2]
  IC50: 0.0605 µM
[3]
  IC50: < 0.003 µM

## CN1CCN(C(=O)c2cccc(-c3ncnc4ccc(-c5ccc(N(C)C)nc5)cc34)c2)CC1 [Example 17]
[2]
  IC50: 0.352 µM
[3]
  IC50: 0.00638 µM

## CN1CCN(C(=O)c2cccc(-c3ncnc4ccc(-c5cncc(S(C)(=O)=O)c5)cc34)c2)CC1 [Example 24]
[2]
  IC50: 0.4 µM
[3]
  IC50: 0.015 µM

## CC(=O)N1CCN(C(=O)c2cncc(-c3ncnc4ccc(-c5cncc(C(F)(F)F)c5)cc34)c2)CC1 [Example 50, 1-(4-{5-[6-(5-Trifluoromethyl-pyridin-3-yl)-quinazolin-4-yl]-pyridine-3-carbonyl}-piperazin-1-yl)-ethanone]
[2]
  IC50: 0.319 µM
[3]
  IC50: 0.0105 µM

## COc1ncc(-c2ccc3ncnc(-c4cncc(C(=O)N5CCOC(C)(C)C5)c4)c3c2)cc1C#N [Example 62]
[2]
  IC50: 1.15 µM
[3]
  IC50: 0.007 µM

## COc1ccc(-c2ccc3ncnc(-c4cccc(C(=O)N5CCNC[C@H]5C)c4)c3c2)cn1 [Example 97, {3-[6-(6-Methoxy-pyridin-3-yl)-quinazolin-4-yl]-phenyl}-((R)-2-methyl-piperazin-1-yl)-methanone]
[2]
  IC50: 0.463 µM
[3]
  IC50: 0.023 µM

## CN1CCN(C(=O)c2cccc(-c3ncnc4ccc(-c5ccc(OC(F)F)nc5)cc34)c2)CC1 [Example 13]
[2]
  IC50: 1.33 µM
[3]
  IC50: 0.034 µM

## CN1CCN(C(=O)c2cccc(-c3ncnc4ccc(-c5cc(NS(C)(=O)=O)cc(C(F)(F)F)c5)cc34)c2)CC1 [Example 47]
[2]
  IC50: > 9.1 µM
[3]
  IC50: 0.027 µM

## CC(=O)N1CCN(C(=O)c2cccc(-c3ncnc4ccc(-c5cnc(N)nc5)cc34)c2)CC1 [Example 8]
[2]
  IC50: 0.268 µM
[3]
  IC50: 0.0095 µM

## Cc1ccc(-c2ccc3ncnc(-c4cccc(C(=O)N5CCN(C)CC5)c4)c3c2)cc1S(C)(=O)=O [Example 43]
[2]
  IC50: 0.374 µM
[3]
  IC50: 0.011 µM

## CCOc1ccc(-c2ccc3ncnc(-c4cccc(C(=O)N5CCN(C)C(C)(C)C5)c4)c3c2)cn1 [Example 27]
[2]
  IC50: 0.404 µM
[3]
  IC50: 0.0185 µM

## COc1ccc(-c2ccc3ncnc(-c4cccc(C(=O)N5CCS(=O)(=O)CC5)c4)c3c2)cn1 [Example 93, (1,1-Dioxo-1lambda*6*-thiomorpholin-4-yl)-{3-[6-(6-methoxy-pyridin-3-yl)-quinazolin-4-yl]-phenyl}-methanone]
[2]
  IC50: 0.12 µM
[3]
  IC50: < 0.003 µM

## COc1ccc(-c2ccc3ncnc(-c4cccc(C(=O)N5CCNC(C)(C)C5)c4)c3c2)cn1 [Example 88, (3,3-Dimethyl-piperazin-1-yl)-{3-[6-(6-methoxy-pyridin-3-yl)-quinazolin-4-yl]-phenyl}-methanone]
[2]
  IC50: 0.1 µM
[3]
  IC50: 0.00267 µM

## COc1ccc(-c2ccc3ncnc(-c4cncc(C(=O)N5CCOC(C)(C)C5)c4)c3c2)cn1 [Example 67]
[2]
  IC50: 0.306 µM
[3]
  IC50: 0.007 µM

## CN1CCN(C(=O)c2cccc(-c3ncnc4ccc(-c5ccc(NS(C)(=O)=O)c(C(F)(F)F)c5)cc34)c2)CC1 [Example 48]
[2]
  IC50: 3.8 µM
[3]
  IC50: 0.0475 µM
